pIC50: −log10 of the molar value.
Test system: 935938-334-R-J1-PDC spheroids with HUVEC/MSC, viability
Assay: Anticancer human tumor 935938-334-R-J1-PDC patient-derived small intestine adenocarcinoma cell line growth inhibition [PI3K]
Conditions: for pIC50: curve of first compound; for viability, T/C: stronger effect = lower value; active means viability on the fitted dose curve at most 10% of control; inactive means the rest
Method in brief: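 Spheroid viability read-out. Co-cultures contained the tumor line plus HUVEC and human MSCs. Each agent was paired with a PI3K inhibitor (inavolisib, alpelisib, duvelisib, copanlisib) across half-log dilutions starting at clinical Cmax, or at 10 microM when Cmax was unknown.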

[1] = second compound 0.0316 µM, first compound 0.0316 µM
[2] = second compound 0.0316 µM, first compound 0.1 µM
[3] = second compound 0.0316 µM, first compound 0.316 µM
[4] = second compound 0.0316 µM, first compound 1 µM
[5] = second compound 0.0316 µM, first compound 3.16 µM
[6] = second compound 0.0316 µM, first compound 10 µM
[7] = second compound 0.1 µM, first compound 0.0316 µM
[8] = second compound 0.1 µM, first compound 0.1 µM
[9] = second compound 0.1 µM, first compound 0.316 µM
[10] = second compound 0.1 µM, first compound 1 µM
[11] = second compound 0.1 µM, first compound 3.16 µM
[12] = second compound 0.1 µM, first compound 10 µM
[13] = second compound 0.316 µM, first compound 0.0316 µM
[14] = second compound 0.316 µM, first compound 0.1 µM
[15] = second compound 0.316 µM, first compound 0.316 µM
[16] = second compound 0.316 µM, first compound 1 µM
[17] = second compound 0.316 µM, first compound 3.16 µM
[18] = second compound 0.316 µM, first compound 10 µM
[19] = second compound 1 µM, first compound 0.0316 µM
[20] = second compound 1 µM, first compound 0.1 µM
[21] = second compound 1 µM, first compound 0.316 µM
[22] = second compound 1 µM, first compound 1 µM
[23] = second compound 1 µM, first compound 3.16 µM
[24] = second compound 1 µM, first compound 10 µM
[25] = second compound 3.16 µM, first compound 0.0316 µM
[26] = second compound 3.16 µM, first compound 0.1 µM
[27] = second compound 3.16 µM, first compound 0.316 µM
[28] = second compound 3.16 µM, first compound 1 µM
[29] = second compound 3.16 µM, first compound 3.16 µM
[30] = second compound 3.16 µM, first compound 10 µM
[31] = second compound 10 µM, first compound 0.0316 µM
[32] = second compound 10 µM, first compound 0.1 µM
[33] = second compound 10 µM, first compound 0.316 µM
[34] = second compound 10 µM, first compound 1 µM
[35] = second compound 10 µM, first compound 3.16 µM
[36] = second compound 10 µM, first compound 10 µM
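Further: compound exposure lasted seven days before viability was read.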
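Wherever viability, T/C is given: percent of vehicle DMSO treated spheroid viability so 100% = untreated.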

C#Cc1c(F)ccc2cc(O)cc(-c3ncc4c(N5CC6CCC(C5)N6)nc(OCC56CCCN5CC(F)C6)nc4c3F)c12 (centres undefined) + CC(Nc1ncnc2nc[nH]c12)c1cc2cccc(Cl)c2c(=O)n1-c1ccccc1
5.65: pIC50 (second compound 3.16 µM)
5.40: pIC50 (second compound 0.316 µM)
inactive: viability, T/C [1] 83.8% | viability, T/C [2] 82.3% | viability, T/C [3] 83.2% | viability, T/C [4] 65.5% | viability, T/C [5] 56.8% | viability, T/C [6] 39% | viability, T/C [7] 99.4% | viability, T/C [8] 97% | viability, T/C [9] 91.9% | viability, T/C [10] 65.5% | viability, T/C [11] 53.3% | viability, T/C [12] 42.9% | viability, T/C [13] 88.8% | viability, T/C [14] 103% | viability, T/C [15] 89.3% | viability, T/C [16] 74.1% | viability, T/C [17] 54.3% | viability, T/C [18] 37.8% | viability, T/C [19] 76.7% | viability, T/C [20] 73.2% | viability, T/C [21] 60.4% | viability, T/C [22] 52.4% | viability, T/C [23] 57.4% | viability, T/C [24] 39.1% | viability, T/C [25] 82.8% | viability, T/C [26] 82.8% | viability, T/C [27] 110% | viability, T/C [28] 69.8% | viability, T/C [29] 44.5% | viability, T/C [30] 30.3% | viability, T/C [31] 70% | viability, T/C [32] 73.8% | viability, T/C [33] 60.4% | viability, T/C [34] 44.2% | viability, T/C [35] 36.2% | viability, T/C [36] 34%
5.55: pIC50 (second compound 1 µM)
6.18: pIC50 (second compound 10 µM)
5.50: pIC50 (second compound 0.1 µM)
5.34: pIC50 (second compound 0.0316 µM)

C=CC(=O)N1CCN(c2nc(=O)n(-c3c(C)ccnc3C(C)C)c3nc(-c4c(O)cccc4F)c(F)cc23)C(C)C1 (centres undefined) + CC(Nc1ncnc2nc[nH]c12)c1cc2cccc(Cl)c2c(=O)n1-c1ccccc1
< 5.00: pIC50 (second compound 0.0316 µM) | pIC50 (second compound 0.1 µM) | pIC50 (second compound 0.316 µM) | pIC50 (second compound 1 µM) | pIC50 (second compound 3.16 µM) | pIC50 (second compound 10 µM)
inactive: viability, T/C [1] 94.2% | viability, T/C [2] 103% | viability, T/C [3] 96.4% | viability, T/C [4] 84.3% | viability, T/C [5] 83.9% | viability, T/C [6] 95.8% | viability, T/C [7] 105% | viability, T/C [8] 123% | viability, T/C [9] 96.8% | viability, T/C [10] 120% | viability, T/C [11] 114% | viability, T/C [12] 108% | viability, T/C [13] 86% | viability, T/C [14] 88.7% | viability, T/C [15] 88.3% | viability, T/C [16] 95.7% | viability, T/C [17] 98.2% | viability, T/C [18] 87.6% | viability, T/C [19] 96.7% | viability, T/C [20] 106% | viability, T/C [21] 64% | viability, T/C [22] 94.8% | viability, T/C [23] 73.4% | viability, T/C [24] 68.9% | viability, T/C [25] 71.3% | viability, T/C [26] 84.3% | viability, T/C [27] 89.5% | viability, T/C [28] 85.1% | viability, T/C [29] 95% | viability, T/C [30] 72.2% | viability, T/C [31] 62.1% | viability, T/C [32] 99.5% | viability, T/C [33] 96.8% | viability, T/C [34] 84.5% | viability, T/C [35] 75.5% | viability, T/C [36] 68.8%
